The values below are quoted from earlier work in US20140141213A1, “PHOTOCURABLE INK COMPOSITION, INK JET RECORDING METHOD, RECORDED MATTER, INK SET, INK CARTRIDGE, AND RECORDING APPARATUS” (Seiko Epson Corporation, priority 2009, published 2014).

The conditions of this data set: primary irritation index.
`C=C(C)C(=O)OCCCCCCOC(=O)C(=C)C` [1,6-Hexanediol dimethacrylate]: the P.I.I is 0.5.

For `C=CC(=O)OCCCCCCCCCOC(=O)C=C` [1,9-Nonanediol diacrylate], the P.I.I is given as 2.0.

Consider `C=C(C)C(=O)OCC(O)COC(=O)C(=C)C` [2-Hydroxy-1,3-dimethacryloxypropane], for which the P.I.I was 0.6.

For `C=CC(=O)OCC1COC(C)(CC)O1` (centres unmarked) [(2-Methyl-2-ethyl-1,3-dioxolane-4-yl)methyl acrylate], the P.I.I is given as 1.3.

For `C=CC(=O)OCC1COC(C)(CC(C)C)O1` (centres unmarked) [(2-Methyl-2-isobutyl-1,3-dioxolane-4-yl)methyl acrylate], the P.I.I is on record as 1.0.

Consider `C=C(C)C(=O)OCCOCCOC(=O)C(=C)C` [Diethylene glycol dimethacrylate], for which the P.I.I was 0.5.

As for `C=C(C)C(=O)OCCOC(=O)C(=C)C` [Ethylene glycol dimethacrylate], the P.I.I was 0.6.

On to `C=CC(=O)O[C@@H]1C[C@H]2CC[C@]1(C)C2(C)C` [Isobornyl acrylate], for which the P.I.I was 0.6.

On to `C=CC(=O)OCCOCCOC` [Methoxy diethylene glycol monoacrylate], for which the P.I.I is 0.7.

Consider `C=C(C)C(=O)OCC(C)(C)COC(=O)C(=C)C` [Neopentyl glycol dimethacrylate], for which the P.I.I is reported as 0.0.

`C=CC(=O)OCCOc1ccccc1` [Phenoxyethyl acrylate]: the P.I.I is reported as 1.7.

`C=C(C)C(=O)OCCOCCOCCOCCOC(=O)C(=C)C` [Tetraethylene glycol dimethacrylate]: the P.I.I is recorded as 0.5.

For `C=C(C)C(=O)OCC(CC)(COC(=O)C(=C)C)COC(=O)C(=C)C` [Trimethylolpropane trimethacrylate], the P.I.I is recorded as 0.8.

In the case of `C=CC(=O)OCC(C)OCC(C)OCC(C)OC(=O)C=C` (centres unmarked) [Tripropylene glycol diacrylate], the P.I.I is given as 1.6.

Turning to Polyethylene glycol #400 diacrylate, the P.I.I was 0.4.

“Trimethylolpropane PO-modified triacrylate”: the P.I.I is given as 0.1.

In the case of Trimethylolpropane-modified triacrylate, the P.I.I is 1.5.
